From patent publication US20240316215A1, “CONTROLLED DRUG RELEASE MATERIAL” (ADURO MATERIAL AB, priority 2021, published 2024)

How the values were obtained:
breast cancer cell lines = conditions: read-out: EC50 previously reported; cited from earlier work
[1] = tested on: MCF-7 human breast cancer cells; experiment: cells
From the text: Cell viability studies are typically conducted on cells that are actively dividing, in the linear range of logarithmic division. However, tumors are typically dense, highly populated 3-dimensional cultures.

EC50 ([1]; MCF7, MCF-7 cells cultured at 1×10^4/well): 200 µM
EC50 ([1]; MCF7, MCF-7 cells cultured at 2×10^4/well): 400 µM
EC50 ([1]; MCF7, MCF-7 cells cultured at 4×10^4/well): 800 µM
EC50 ([1]; MCF7, lowest cell concentration, 1×10^4 cells/well): 200 µM
Compound: NC(=O)NO [hydroxyurea]
EC50 (breast cancer cell lines): ~200 µM
